Read-outs that look alike come from different tables or passages of the source.
Key:
[1] = tested on: TRPA1V1; assay: Intracellular calcium (Fluo-4, FLIPR) activation of TRPA1V1 cells (co-expressing TRPA1 and TRPV1) by GRAS compounds; assay type: cell-based, human; settings: relative to AITC 30 μM;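 also: HEK293 cells co-expressing TRPA1 and TRPV1, fluorescence read at 488/514 nm after baseline subtraction, recorded every 2 s over 10 min, ionomycin 10 µM and buffer as controls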
[2] = molecular target: T1, human TRPA1 (Homo sapiens, UniProt O75762, K186N/R3C/R58T); assay: Intracellular calcium (Fluo-4, FLIPR) activation of TRPA1 cells by GRAS compounds; assay type: cell-based;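 also: TRPA1-expressing cells, fluorescence read on a FLIPR Tetra (ex 488 nm, em 514 nm) every 2 s for 10 min after compound addition, baseline subtracted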
T1 construct: expressed in transfected cells; pcDNA3 control cells
T1 sequence (O75762 whole entry R3C/R58T/K186N): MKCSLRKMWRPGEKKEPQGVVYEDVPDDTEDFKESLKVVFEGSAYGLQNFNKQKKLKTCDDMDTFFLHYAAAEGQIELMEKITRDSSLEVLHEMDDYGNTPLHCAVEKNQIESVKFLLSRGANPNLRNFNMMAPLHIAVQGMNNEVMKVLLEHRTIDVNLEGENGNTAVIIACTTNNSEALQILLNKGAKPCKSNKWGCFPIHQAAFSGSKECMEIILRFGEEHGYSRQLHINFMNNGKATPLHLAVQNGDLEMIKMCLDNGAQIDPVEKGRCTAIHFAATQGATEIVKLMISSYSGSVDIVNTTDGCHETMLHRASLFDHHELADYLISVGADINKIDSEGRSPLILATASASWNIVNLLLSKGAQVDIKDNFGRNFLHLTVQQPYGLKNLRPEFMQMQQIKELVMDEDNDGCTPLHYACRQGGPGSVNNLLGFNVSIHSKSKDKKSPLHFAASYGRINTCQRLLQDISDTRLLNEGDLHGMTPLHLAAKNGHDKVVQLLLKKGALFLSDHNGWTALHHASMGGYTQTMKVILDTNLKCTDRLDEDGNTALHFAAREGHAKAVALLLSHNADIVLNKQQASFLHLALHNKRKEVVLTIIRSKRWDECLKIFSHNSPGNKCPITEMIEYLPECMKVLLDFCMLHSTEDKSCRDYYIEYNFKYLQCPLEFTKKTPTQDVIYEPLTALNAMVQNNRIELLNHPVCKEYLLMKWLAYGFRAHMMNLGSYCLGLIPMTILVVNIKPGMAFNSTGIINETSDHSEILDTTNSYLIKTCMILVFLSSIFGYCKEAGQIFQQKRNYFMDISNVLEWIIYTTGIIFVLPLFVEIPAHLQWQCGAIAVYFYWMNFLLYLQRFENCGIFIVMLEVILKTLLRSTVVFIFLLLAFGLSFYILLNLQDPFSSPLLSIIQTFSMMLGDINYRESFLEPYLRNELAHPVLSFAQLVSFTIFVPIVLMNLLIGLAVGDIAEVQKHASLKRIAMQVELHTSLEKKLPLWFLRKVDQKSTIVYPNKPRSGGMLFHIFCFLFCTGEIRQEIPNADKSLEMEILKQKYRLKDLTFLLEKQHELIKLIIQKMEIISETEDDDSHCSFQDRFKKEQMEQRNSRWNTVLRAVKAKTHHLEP

[3] = Table 1(c), 1 mM, relative to AITC 30 μM
[4] = Table 1(c), 1 mM, relative to AITC 30 μM, read-out: A1 activation, % of agonist value
[5] = Table 1(d), 1 mM, relative to AITC 30 μM, read-out: A1 activation, % of agonist value
[6] = Table 1(d), 1 mM, relative to AITC 30 μM
[7] = Table 1(e), 1 mM, relative to AITC 30 μM, read-out: A1 activation, % of agonist value

Compound | A1V1 activation, % of agonist value ([1]; Table 1(c), 1 mM) | activation at 1000 µM [2, 4] | further results
CC/C=C\CC/C=C/C=O [2-trans-6-cis-Nonadienal] | 81.22% |  | A1 activation, % of agonist value [2, 3]: 77.3%
COC(=O)c1ccccc1N(C)C [N,N-Dimethylanthranilic acid methyl ester] | 77.15% | 74.2% | 
CCCC(=O)OCCC(C)CCC=C(C)C (centres unmarked) [Citronellyl butyrate] |  |  | A1V1 activation, % of agonist value ([1]; Table 1(c), 100 μM (*)): 57.9%; activation at 100 µM ([2]; Table 1(c), 100 μM (*), relative to AITC 30 μM, read-out: A1 activation, % of agonist value): 44.9%
O=C(Nc1ccccc1C(=O)O)c1ccccc1 [Benzoylanthranilic acid] | 125.6% |  | A1 activation, % of agonist value [2, 3]: 145.9%
Ammonium carbonate | 58.42% |  | 
C=C(C)C1CC=C(C)C(OC(C)=O)C1 (single isomer, unassigned; (-)) [(−)-Carvyl acetate] | 37% |  | A1 activation, % of agonist value [2, 3]: 31.2%
C=CCCC=O [4-Pentenal] | 84.24% | 75.4% | 
CC(=O)OCc1ccco1 [Furfuryl acetate] |  |  | A1V1 activation, % of agonist value ([1]; Table 1(d), 1 mM): 91.3%; activation at 1000 µM [2, 5]: 120%
S=C=NCCc1ccccc1 [Phenethyl isothiocyanate] | 81.46% | 92% | 
CCCCCC=CC=CCO [2,4-Decadienol] | 52.2% | 48.6% | 
CC(=O)Cc1ccco1 [2-Furylacetone] | 59.5% | 60.8% | 
CCC(CC)C(=O)O [2-Ethylbutyric acid] |  |  | A1V1 activation, % of agonist value ([1]; Table 1(d), 1 mM): 34.87%; activation at 1000 µM [2, 5]: 67.7%
CC(=O)OCCC(C)C [Isoamyl acetate] | 61.80% | 49.6% | 
OCC=Cc1ccccc1 [Cinnamyl alcohol] | 79.4% |  | activation at 1000 µM ([2]; read-out: A1 activation, % of agonist value): 89.8%
CC(=O)OCC=Cc1ccccc1 [Cinnamyl acetate] | 89.73% | 85% | 
Bisabolene |  |  | A1V1 activation, % of agonist value ([1]; Table 1(d), 1 mM): 46.2%; A1 activation, % of agonist value [2, 6]: 77%
C=CC(=O)CC [Ethyl vinyl ketone] |  |  | A1V1 activation, % of agonist value ([1]; Table 1(d), 1 mM): 40.61%; activation at 1000 µM [2, 5]: 79.5%
COC(=O)c1ccccc1OC [Methyl 2-methoxybenzoate] | 74.68% | 71.2% | 
CCCCC/C=C/C=O [trans-2-Octanal] | 115% |  | A1 activation, % of agonist value [2, 3]: 112%
CCOc1ccc(C=O)cc1 [4-Ethoxybenzaldehyde] |  |  | A1V1 activation, % of agonist value ([1]; Table 1(e), 1 mM): 103%; activation at 1000 µM [2, 7]: 62%
CSCCCN=C=S [Propane, 1-isothiocyanato-3-(methylthio)-] |  |  | A1V1 activation, % of agonist value ([1]; Table 1(e), 1 mM): 114.6%; activation at 1000 µM [2, 7]: 81.6%
CC1=C(/C=C/C(C)=C/C=C/C(C)=C/CO)C(C)(C)CCC1 [Retinol] | 67.79% | 80% | 
OC[C@H]1O[C@@](CO)(O[C@H]2O[C@H](CO)[C@@H](O)[C@H](O)[C@H]2O)[C@@H](O)[C@@H]1O [Sucrose] | 80.86% | 84.1% | 
COC(=O)CCCc1ccccc1 [Methyl 4-phenylbutyrate] | 50.30% | 58.4% | 
CCCOC(C)OCCc1ccccc1 (centres unmarked) [Acetaldehyde, phenethyl propyl acetal] |  |  | A1V1 activation, % of agonist value ([1]; Table 1(d), 1 mM): 62.2%; A1 activation, % of agonist value [2, 6]: 86.4%
CC=CC(C)=O [3-Penten-2-one] |  |  | A1V1 activation, % of agonist value ([1]; Table 1(d), 1 mM): 35%; activation at 1000 µM [2, 5]: 64.2%
O=C(c1ccccc1)C(O)c1ccccc1 (centres unmarked) [Benzoin] |  |  | A1V1 activation, % of agonist value ([1]; Table 1(e), 1 mM): 61.81%; activation at 1000 µM [2, 7]: 26.2%
CC1=NC(CC(C)C)SC1C (centres unmarked) [3-Thiazoline, 4,5-dimethyl-2-isobutyl-] | 138.7% | 142% | 
CCOC(=O)c1ccccc1 [Ethyl benzoate] | 60% | 70% | 
OCc1ccccc1 [Benzenemethanol] | 78.47% | 79.6% | 

From US9427415B2, “Methods and compositions for modifying sensorial perception” (The Procter & Gamble Company, priority 2014, dated 2016)
